Measured values: patent US9265755B2, “Stem cell administration to reduce TNF-α level in CSF of an autism spectrum disorder or pervasive development disorder patient” (priority 2009, dated 2016)
Entries after “also recorded” stand apart in the source; their conditions may differ.

Experiments:
[1] = system: patients with autistic regression and abnormal EEG; assay: Thalidomide in patients with autistic regression and abnormal EEG
[2] = system: patient with co-morbid autism condition and inflammatory colitis; assay: Co-morbid autism condition in a single patient treated with infliximab; type: in vivo, human; settings: in just days of treatment
Source text: This patient regressed and became autistic […] with the onset of their inflammatory colitis condition becoming clinically obvious at a later date.

Interleukin-1β = assay: Serum Interleukin-1β levels with lenalidomide outside of the study; type: in vivo, human; settings: 2.5 to 10 mg; 2 subjects; 12 to 24 weeks of therapy
[3] = system: patients diagnosed with an autism spectrum condition; assay: Clinical language, social skills, CARS and EEG outcome in the lenalinomide study; type: in vivo, human
autism spectrum subjects = assay: Clinical improvement with lenalidomide outside of the study; type: in vivo, human; settings: 2.5 to 10 mg; four subjects outside of the study
TNF-α = TNF-α levels in CSF and serum of autism spectrum patients treated with lenalinomide; type: in vivo, human
[4] = system: test subjects with autism spectrum condition; assay: L-Carnosine in test subjects with autism spectrum condition (language, CARS); type: in vivo, human
[5] = 25 to 50 mg per day for 2 to 4 months, six patients
[6] = after 4 to 12 weeks off the medication
[7] = 2.5 mg per day, in 6 to 12 weeks, four patients with TNF-α CSF elevation over serum levels

With `O=C1CCC(N2C(=O)c3ccccc3C2=O)C(=O)N1` (stereo not shown) [Thalidomide] the EEG [1, 5] was “improved”, the clinical global improvement [1, 5] was “clinical global improvement occurred” and the “clinical state of patients with autistic regression and abnormal EEG” value ([1]; patients who previously showed immune partial response to oral or injectable corticosteroids) was “improvement”.

With Infliximab the co-morbid autism condition [2] was “improvement”.

With `Nc1cccc2c1CN(C1CCC(=O)NC1=O)C2=O` (stereo not shown) [Lenalinomide] the “Interleukin-1β levels in serum” value (Interleukin-1β) was “lower”, the “EEG in patients with abnormal EEG” value ([3]; 2.5 mg per day) was “showed improvement; also recorded: may have improved” and the “patients with elevated TNF-α levels in CSF and serum improved over baseline clinically” value ([3]; 2.5 mg per day (4/6 of completed study)) was “four out of four”. The “CGI rating scale for language expression” value ([3]; 2.5 mg per day, FIG. 2a) was “Improvement”, the “CGI rating scale for receptive language” value ([3]; 2.5 mg per day, FIG. 2b) was “Improvement” and the “CGI rating scale for social skills” value ([3]; 2.5 mg per day, FIG. 3) was “Improvement”. For the same molecule, the “neuropsychological testing, receptive one-word test” value ([3]; 2.5 mg per day, FIG. 4a) was “Improvement”, the “neuropsychological testing, expressive one-word test” value ([3]; 2.5 mg per day, FIG. 4b) was “Improvement” and the “Childhood Autism Rating Scale Scores (CARS)” value ([3]; 2.5 mg per day, four patients) was “improved”. For the same molecule, the language skills ([3]; 2.5 mg per day, four patients) was “improved”, the social skills ([3]; 2.5 mg per day, four patients) was “improved” and the “skills after withdrawal of the medication” value [3, 6] was “regressed”. The “clinical state when medication was re-introduced” value ([3]; re-introduced at 2.5 to 5 mg per day, three patients) was “improved”, the clinical improvement (autism spectrum subjects) was “great clinical improvement” and the “levels of TNF-α in CSF” value (TNF-α; [7]) was “lowered levels”. For the same molecule, the “levels of TNF-α in serum” value (TNF-α; [7]) was “lowered levels”, the “TNF-α levels in serum after withdrawal of the medication” value (TNF-α; [6]) was “increased” and the “CSF and serum ratios of TNF-α and other inflammatory cytokines” value (TNF-α; when TNF-α is elevated in an inflammatory response) was “lowering”.

For `NCCC(=O)N[C@@H](Cc1cnc[nH]1)C(=O)O` [L-Carnosine], the “language function, receptive one word vocabulary testing scores” value ([4]; 800 mg per day, after 6 and 12 weeks of treatment, compared to placebo) was “improvement”, the CARS scores ([4]; 800 to 1000 mg, over 8 weeks) was “CARS scores improvement” and the language ([4]; 800 to 1000 mg, over 8 weeks) was “language improvement”.
